# Results as given in US20140088006A1, “Stem Cell Mobilization and Tissue Repair and Regeneration” (Wellstat Therapeutics Corporation, priority 2011, published 2014).
# Where “and” joins values, the source holds several entries; their conditions need not be identical. Equal values may be shown once. No end group written: not given here.
# Tests used:
# [1] = Glucose level in db/db mice treated for 5 weeks; format: in vivo; conditions: for Glucose level in peripheral blood (nonfasting): 5 mg/kg s.c./i.v. for 5 weeks, individual mice; for Glucose level in peripheral blood, group mean: 5 mg/kg, high values set to 600 mg/dL
# Description: Homozygous Leptin receptor-deficient diabetic db/db male mice—BKS.Cg-Dock7m+/+Leprdb/J (Jackson Laboratories, stock #000642) become obese at 3-4 weeks of age. Elevation of plasma insulin usually occurs at 10-14 days and elevation of blood glucose at 6-8 weeks of age. We examined the effects of Compound X on the onset of hyperglycemia in db/db mice. Continuous Compound X treatments were performed during 5 weeks.
# At day 0, homozygous 7-week-old female db/db mice were divided into 2 experimental groups (n=10); both groups received subcutaneous injections for 5 consecutive days: Group 1 received 0.9% saline and group 2 received 5 mg/kg Compound X. The following week mice received intravenous injections for 4 consecutive days. The next two weeks mice received subcutaneous injections 3 times per week and the last week of treatment was given intravenously 3 times per week.
# Nonfasting blood glucose levels were measured weekly from tail bleeds with a handheld glucometer. Animal body weights were taken throughout the course of the study.
# At the end of experiment, serum from blood was obtained from the retro-orbital sinus after an overnight fast.
# [2] = tested on: CFU-GEMM / CFU-GM progenitor cells; assay: CFU colony assay of peripheral blood after 4 daily subcutaneous injections; format: in vivo, C57Bl/6 male mice; conditions: for CFU-GEMM number, AVG / CFU-GEMM number: 1 hr after injection; for CFU-GEMM number: individual dishes
# Description: This example is based on a protocol for a 4-day course of once-daily Compound X injections into C57Bl/6 male mice similar to G-CSF. Two effective dose levels of Compound X were found previously to mobilize HSC 1 hr after single injection and were selected for this experiment. Four-month old C57Bl/6 male mice (Jackson Laboratories) were subcutaneously injected with 0.9% saline, 125 μg/kg Compound X or 250 μg/kg Compound X on days 1, 2, 3 and 4 as described in Table 4. Each day, one-hour post injections, peripheral blood from 3 mice per group was harvested from the orbital plexus into EDTA-containing tubes. On day 4, a femur and spleen were also removed from mice to assess by FACS whether any toxicity aroused from repeated injections of Compound X.
# As in the previous example to determine mobilization of colony-forming cells out of the bone marrow, mononuclear cells from peripheral blood were plated into MethoCult 3434 media (Stem Cell Technologies). Briefly, after white blood cell counting, the remaining peripheral blood was diluted (1:1, v/v) with 0.9% saline (APP Pharmaceutical) and layered (2:1, v/v) onto 1-Step™1.077 A (Accurate Chemicals) in 15-ml centrifuge tubes. Cells were centrifuged at 600×g for 20 min at room temperature. The mononuclear cells were harvested from the interface between the plasma layer and the 1-Step™ A solution using a 1-ml syringe and blunt-end needle. The cells were transferred to 15-ml centrifuge tubes and washed twice in 1×PBS. Cells were resuspended in 1 ml of IMDM and cell counts were obtained using the Coulter counter. Cells were placed into 35-mm Petri dishes at 200,000 cells per dish with 5 dishes per group. Cells incubated for 10 days in a 37° C. and 5% CO2 humidified incubator. CFU colonies were then scored using an inverted microscope—CFU-GM detected on day 7 and CFU-GEMM—on day 10. Data presented in Tables 7, 8 and 9, FIGS. 3 and 4.
# [3] = tested on: full-thickness cutaneous wounds; assay: Excisional wound healing model in db/db mice; format: in vivo; conditions: i.v. 5 mg/kg daily for 4 days, Day 4
# [4] = tested on: full-thickness cutaneous wounds; assay: Excisional wound healing model in db/db mice; format: in vivo; parameters: Wound area measurements, Day 14: unit not given here; conditions: for Wound healing rate: individual mice; for Wound healing rate / Wound area measurements, Day 14 / Wound area, Percent of original size: 5 mg/kg; for Wound area measurements, Day 14 / Wound area, Percent of original size: individual wounds
# Description: The average time to wound closure between db/db mice and non-diabetic C57BL6 mice was compared in a pilot experiment. Paired 6-mm full-thickness cutaneous wounds were made on the dorsa of mice after depilation with a sterile Miltex biopsy punch (VWR #21909-144). To prevent wound contraction during the healing process, 0.5 g/mL polyisobutyl methacrylate (Sigma #445754) in toluene (Sigma #244511) was applied over wounds 24 hours after wounding. After methacrylate hardened, a transparent dressing (Tagaderm, Lab Safety Supply #53379) was placed over wounds. Two groups of mice (5 mice per group) received intravenous injections of either Vehicle or Compound X (5 mg/kg) starting on day one post wounding and continuing daily for four consecutive days at Zeitgeber time 4 (ZT4), 4 hr after onset of light to time mobilization of stem cells with circadian oscillations (Frenette et. al. 2008).
# Digital photographs of the wounds were taken on days 0, 7, 10 and 14. Wound areas were measured by manually tracing the border of unhealed area and quantified as a percent area of the original wound size. The size of the traced area was calculated automatically using the Image J (NIH) analysis program. The following calculation was used to determine the wound healing rate: (Area of original wound−Area of remaining wound)÷Area of original wound×100. […]
# In the next experiment, 2 groups of db/db mice (6 mice per group) received paired 6-mm full-thickness cutaneous wounds. Mice then received intravenous injections of either Vehicle or Compound X (5 mg/kg) starting on day one post wounding and continuing daily for four consecutive days at ZT4. Wounds were monitored until complete closure in control group on day 21. To limit wound contraction during the healing process, a donut shaped silicone splint was centered on the wound and glued (cyanoacrylate adhesive) to the skin.
# Ten mice were treated per group with 3 mice from each group being sacrificed for histology at day 10 post-wounding. Wound closure in the Compound X treated group was mostly achieved by the 14th day, while control wounds were closed between days 18-21 post-wounding. […] This was similar to data generated in previous experiments.
# [5] = i.v. 5 mg/kg daily for 4 days, Day 7
# [6] = i.v. 5 mg/kg daily for 4 days, Day 10
# [7] = second experiment, i.v. 5 mg/kg daily for 4 days, 14 days post-wounding
sequence,measurement,setting,value
"FPHFDLSHGSAQV [Compound X, tridecapeptide that acts on stem cells]",Glucose level in peripheral blood (nonfasting),[1]; Week 1,160 mg/dL and 121 mg/dL and 122 mg/dL and 235 mg/dL and 117 mg/dL and 178 mg/dL and 248 mg/dL and 119 mg/dL and 181 mg/dL and 194 mg/dL
same,Glucose level in peripheral blood (nonfasting),[1]; Week 2,481 mg/dL and 377 mg/dL and 177 mg/dL and 472 mg/dL and 273 mg/dL and 452 mg/dL and 500 mg/dL and 189 mg/dL and 502 mg/dL and 430 mg/dL
same,Glucose level in peripheral blood (nonfasting),[1]; Week 3,"541 mg/dL (2×) and 447 mg/dL and 271 mg/dL and HI (High/Hi = ≧600 mg/dL, the maximum possible glucometer reading) and 546 mg/dL and 496 mg/dL and 474 mg/dL and 267 mg/dL and 463 mg/dL"
same,Glucose level in peripheral blood (nonfasting),[1]; Week 4,"398 mg/dL and 416 mg/dL and 206 mg/dL and 599 mg/dL and 440 mg/dL and 458 mg/dL and 591 mg/dL and 257 mg/dL and HI (High/Hi = ≧600 mg/dL, the maximum possible glucometer reading) and 549 mg/dL"
same,Glucose level in peripheral blood (nonfasting),[1]; Week 5,"481 mg/dL and 443 mg/dL and 256 mg/dL and 527 mg/dL and 525 mg/dL and 582 mg/dL and 588 mg/dL and 467 mg/dL and HI (High/Hi = ≧600 mg/dL, the maximum possible glucometer reading) (2×)"
same,Glucose level in peripheral blood (nonfasting),[1]; Week 6,"400 mg/dL and 541 mg/dL and 265 mg/dL and 537 mg/dL and 576 mg/dL and HI (High/Hi = ≧600 mg/dL, the maximum possible glucometer reading) (4×) and 457 mg/dL"
same,"Glucose level in peripheral blood, group mean",[1]; Week 1,168 ± 15 mg/dL
same,"Glucose level in peripheral blood, group mean",[1]; Week 2,385 ± 40 mg/dL
same,"Glucose level in peripheral blood, group mean",[1]; Week 3,465 ± 36 mg/dL
same,"Glucose level in peripheral blood, group mean",[1]; Week 4,451 ± 44 mg/dL
same,"Glucose level in peripheral blood, group mean",[1]; Week 5,506 ± 33 mg/dL
same,"Glucose level in peripheral blood, group mean",[1]; Week 6,517 ± 35 mg/dL
same,nonfasting glucose level compared to Saline control,[1]; at all timepoints,decreased glucose level
same,mice with lower than 200 mg/dL fasting serum glucose,[1]; end of the 5-week study,2 mice
same,mice with overnight fasting serum glucose <300 mg/dL,"[1]; end of the 5-week study, vehicle 3/10",7/10
same,"CFU-GEMM number, AVG","[2]; 125 μg/kg s.c. daily, Day 1",2.4 per 100000 mononuclear cells
same,CFU-GEMM number,"[2]; 125 μg/kg s.c. daily, Day 1",2 per 100000 mononuclear cells (4×) and 4 per 100000 mononuclear cells
same,"CFU-GEMM number, AVG","[2]; 125 μg/kg s.c. daily, Day 2",2.8 per 100000 mononuclear cells
same,CFU-GEMM number,"[2]; 125 μg/kg s.c. daily, Day 2",5 per 100000 mononuclear cells and 3 per 100000 mononuclear cells (2×) and 1 per 100000 mononuclear cells and 2 per 100000 mononuclear cells
same,"CFU-GEMM number, AVG","[2]; 125 μg/kg s.c. daily, Day 3",0.4 per 100000 mononuclear cells
same,CFU-GEMM number,"[2]; 125 μg/kg s.c. daily, Day 3",1 per 100000 mononuclear cells (2×) and 0 per 100000 mononuclear cells (3×)
same,"CFU-GEMM number, AVG","[2]; 125 μg/kg s.c. daily, Day 4",0.8 per 100000 mononuclear cells
same,CFU-GEMM number,"[2]; 125 μg/kg s.c. daily, Day 4",0 per 100000 mononuclear cells (2×) and 2 per 100000 mononuclear cells and 1 per 100000 mononuclear cells (2×)
same,increase in multilineage CFU-GEMM colonies vs saline,"[2]; 250 μg/kg over 4 days, all days",≥ 2 fold
same,"CFU-GEMM number, AVG","[2]; 250 μg/kg s.c. daily, Day 1",2.6 per 100000 mononuclear cells
same,CFU-GEMM number,"[2]; 250 μg/kg s.c. daily, Day 1",4 per 100000 mononuclear cells (2×) and 1 per 100000 mononuclear cells and 2 per 100000 mononuclear cells (2×)
same,"CFU-GEMM number, AVG","[2]; 250 μg/kg s.c. daily, Day 2",3.6 per 100000 mononuclear cells
same,CFU-GEMM number,"[2]; 250 μg/kg s.c. daily, Day 2",2 per 100000 mononuclear cells and 6 per 100000 mononuclear cells (2×) and 3 per 100000 mononuclear cells and 1 per 100000 mononuclear cells
same,"CFU-GEMM number, AVG","[2]; 250 μg/kg s.c. daily, Day 3",2.8 per 100000 mononuclear cells
same,CFU-GEMM number,"[2]; 250 μg/kg s.c. daily, Day 3",2 per 100000 mononuclear cells (2×) and 4 per 100000 mononuclear cells and 3 per 100000 mononuclear cells (2×)
same,"CFU-GEMM number, AVG","[2]; 250 μg/kg s.c. daily, Day 4",4 per 100000 mononuclear cells
same,CFU-GEMM number,"[2]; 250 μg/kg s.c. daily, Day 4",4 per 100000 mononuclear cells (3×) and 3 per 100000 mononuclear cells and 5 per 100000 mononuclear cells
same,increase in CFU-GEMM vs saline,"[2]; 250 μg/kg, day 3",4.7 fold
same,mobilization of granulocytic and macrophage precursors CFU-GM,[2]; s.c. daily for 4 days,did not affect mobilization
same,"Wound healing rate, Average",[3],5.14%
same,Wound healing rate,"[3]; individual mice, 5 mg/kg",3.89% and 4.69% and 2.42% and 8.09% and 6.62%
same,"Wound healing rate, Average",[4]; [5],14.22%
same,Wound healing rate,[4]; [5],5.14% and 6.40% and 7.85% and 8.83% and 42.89%
same,"Wound healing rate, Average",[4]; [6],38.68%
same,Wound healing rate,[4]; [6],17.47% and 13.96% and 65.36% and 17.51% and 79.10%
same,wound closure,"[4]; i.v. 5 mg/kg daily for 4 days, ten days after wounding",39%
same,"Wound area measurements, Day 14","[4]; second experiment (6 mice per group, silicone splint), i.v. 5 mg/kg daily for 4 days",5865 and 19152 and 50090 and 21199 and 49486 and 3603 and 24952 and 59032 and 74676 and 52782 and 11094 and 58870
same,"Wound area, Percent of original size, Average",[4]; [7],8.05%
same,"Wound area, Percent of original size",[4]; [7],1.11% and 5.19% and 10.08% and 7.02% and 10.48% and 0.82% and 4.45% and 12.48% and 14.28% and 13.38% and 2.48% and 14.93%
same,"Wound area measurements, Day 14","[4]; third experiment (ten mice per group), i.v. 5 mg/kg",4104 and 24930 and 972 and 100098 and 7440 and 2808 and 324 and 78 and 180 and 21924 and 53715 and 22554 and 20406 and 168663
same,wounds closed by day 14 (95%-100% closure),"[4]; third experiment, i.v. 5 mg/kg",11 of 14
same,"Wound area, Percent of original size","[4]; third experiment, i.v. 5 mg/kg, 14 days post-wounding",0.83% and 5.59% and 0.19% and 18.81% and 1.56% and 0.61% and 0.06% and 0.02% and 0.03% and 4.11% and 10.3% and 5.11% and 5.24% and 29.82%
same,time to wound closure,"[4]; third experiment, i.v. 5 mg/kg, control closed between days 18-21",≤ 14 days
